Measurements as given in US6730064B2, “Coated implantable medical device” (Cook Incorporated, priority 1998, dated 2004).

Key:
[1] = test system: pigs with stented coronary arteries; details: in vivo
Description: (§4) Juvenile domestic swine received one stent in the left anterior descending coronary artery (LAD) and/or one stent in the left circumflex (LCX) or right coronary arteries (RCA). To account for differences in vessel diameter prior to stenting, the deployment pressure for each stent was adjusted to achieve a balloon-to-artery ratio (BAR) of approximately 1.1-1.2. The pigs were followed for 1 month after stent implantation.
(§5) The pigs were fed a standard high fiber diet without lipid or cholesterol supplementation. For antiplatelet effect, each pig was administered approximately 325 mg aspirin and 250 mg ticlopidine daily, starting at least 2 days prior to surgery and continuing until the end of the study. Each pig was also administered approximately 10,000 units heparin during stent implantation and approximately 10,000 units heparin during follow-up angiography. No other antiplatelet agents or anticoagulants were given.

[2] = test system: stented coronary arteries (in-stent restenosis); test: One-month pig studies, quantitative coronary angiography (QCA); format: in vivo, Juvenile domestic swine; details: 1 month
Method: (§1) No other antiplatelet agents or anticoagulants were given.
(§2) Angiograms were recorded immediately before stent implantation, immediately after stent implantation and at 1 month follow-up. Immediately after the follow-up angiography, the hearts were excised and the coronary vasculature was perfusion fixed at physiologic pressure. The vessels were then processed to obtain histologic cross sections for morphometric analysis from proximal, middle and distal locations within each stent.
(§3) Computer assisted quantitative coronary angiography (QCA) analysis and histomorphometric analysis were performed on each stented artery. Qualitative histopathologic analysis was also performed, with each artery evaluated for both injury and inflammation.

[3] = test system: porcine coronary in-stent restenosis model; test: Slow-release paclitaxel coated GR II stents versus control; format: in vivo; details: 175-200 μg total drug
Description: Furthermore, the coating itself appears biocompatible.

in-stent restenosis = test: Fast-release low-dose and high-dose paclitaxel-coated stents versus control; format: in vivo, porcine
[4] = test system: stented coronary arteries; test: One-month pig studies, qualitative histopathologic analysis; format: in vivo, Juvenile domestic swine
Method: as §1, §2, §3

[5] = test system: pigs with stented coronary arteries; test: One-month pig studies, premature deaths and safety
Description: as §4, §5

[6] = test system: stented coronary arteries (in-stent restenosis); test: One-month pig studies, histomorphometric analysis; format: in vivo, Juvenile domestic swine; details: 1-month F/U
Method: as §1, §2, §3

[7] = In-vitro flow system (10 ml/min, 1% BSA in PBS): antibody remaining on stent; format: physicochemical; details: after approximately 10 days perfusion
Description: In still another aspect of the present invention as depicted in FIG. 11, coating layer 16 can be considered an adsorbent layer and/or an absorbent layer in which a bioactive material is attached thereto. In one particular example, device 10 is a stainless steel GR II™ stent in which the stainless steel base material 14 of structure 12 is coated with a polymer and, in particular, parylene. This adsorbent polymer layer 16 of parylene is approximately 230,000 Å thick. Bioactive material layer 18 of the antiplatelet GP IIb/IIIa antibody (AZ1) was passively loaded on adsorbent polymer layer 16. The polymer coated stainless steel stents were immersed for approximately 24 hours in a buffered aqueous solution of AZ1 antibody (1 mg/ml, pH=7.2) at 37° C. AZ1 is a monoclonal anti-rabbit platelet glycoprotein (GP) IIb/IIIa antibody.
In another example, c7E3 Fab as bioactive material layer 18 is attached to polymer coating layer 16. Bioactive material c7E3 Fab is a chimeric monoclonal antibody that acts upon the […] integrin on platelets to inhibit their aggregation. This antibody or receptor blocker can be used in humans intravenously to prevent thrombosis during coronary angioplasty. This receptor blocker is also known as ReoPro™ available from Eli Lilly, Indianapolis, Ind. […]

[8] = 400 μg paclitaxel+parylene N stents

Compound: CC(=O)O[C@H]1C(=O)[C@@]2(C)[C@H]([C@H](OC(=O)c3ccccc3)[C@]3(O)C[C@H](OC(=O)[C@H](O)[C@@H](NC(=O)c4ccccc4)c4ccccc4)C(C)=C1C3(C)C)[C@]1(OC(C)=O)CO[C@@H]1C[C@@H]2O [Paclitaxel, paclitaxel]
- safety problems related to the stents [1]: no safety problems
- Late Loss ([2]; 5 μg paclitaxel on stent): 17.9 ± 20.3%
- MLD at F/U ([2]; 5 μg paclitaxel on stent): 1.74 ± 0.45 mm
- Mean Diameter at Follow-up ([2]; 5 μg paclitaxel on stent): 2.23 ± 0.51 mm
- Late Loss ([2]; 15 μg paclitaxel on stent): 20.1 ± 19.9%
- MLD at F/U ([2]; 15 μg paclitaxel on stent): 1.90 ± 0.38 mm
- Mean Diameter at Follow-up ([2]; 15 μg paclitaxel on stent): 2.15 ± 0.43 mm
- Late Loss ([2]; 35 μg paclitaxel on stent): 2.6 ± 7.5%
- MLD at F/U ([2]; 35 μg paclitaxel on stent): 2.42 ± 0.25 mm
- Mean Diameter at Follow-up ([2]; 35 μg paclitaxel on stent): 2.62 ± 0.21 mm
- Late Loss ([2]; 85 μg paclitaxel on stent): 1.6 ± 8.1%
- MLD at F/U ([2]; 85 μg paclitaxel on stent): 2.61 ± 0.15 mm
- Mean Diameter at Follow-up ([2]; 85 μg paclitaxel on stent): 2.77 ± 0.22 mm
- Late Loss ([2]; 400 μg paclitaxel + parylene N): 0.32 ± 7.1%
- MLD at F/U ([2]; 400 μg paclitaxel + parylene N): 2.75 ± 0.17 mm
- Mean Diameter at Follow-up ([2]; 400 μg paclitaxel + parylene N): 2.92 ± 0.22 mm
- in-stent restenosis compared with controls [3]: significantly reduced
- Area Stenosis (in-stent restenosis; Low-Dose): 19.3 ± 9.45 %
- in-stent restenosis compared to control stents (in-stent restenosis; high-dose): significantly reduced
- in-stent restenosis compared to control stents (in-stent restenosis; low-dose): significantly reduced
- histologic sections with occasional small patches of luminal fibrin ([4]; 5 μg paclitaxel stents): none
- histologic sections with vessel wall hypocellularity and hyalinization ([4]; 5 μg paclitaxel stents): approximately 28%
- histologic sections with occasional small patches of luminal fibrin ([4]; 15 μg paclitaxel stents): none
- histologic sections with vessel wall hypocellularity and hyalinization ([4]; 15 μg paclitaxel stents): approximately 67%
- histologic sections with occasional small patches of luminal fibrin ([4]; 35 μg paclitaxel stents): approximately 50%
- histologic sections with vessel wall hypocellularity and hyalinization ([4]; 35 μg paclitaxel stents): over 80%
- histologic sections with occasional small patches of luminal fibrin ([4]; 85 μg paclitaxel stents): approximately 50%
- histologic sections with vessel wall hypocellularity and hyalinization ([4]; 85 μg paclitaxel stents): over 80%
- histologic sections with occasional small patches of luminal fibrin [4, 8]: approximately 50%
- histologic sections with vessel wall hypocellularity and hyalinization [4, 8]: over 80%
- Premature Deaths ([5]; 5 μg paclitaxel on stent): One pig (stents in LAD &
- Premature Deaths ([5]; 5 μg paclitaxel on stent, listed as paclitaxel): One pig
- Premature Deaths ([5]; 15 μg paclitaxel on stent): One pig (stents in LAD &
- Premature Deaths ([5]; 15 μg paclitaxel on stent, listed as paclitaxel): One pig
- Premature Deaths ([5]; 35 μg paclitaxel on stent): None
- Premature Deaths ([5]; 85 μg paclitaxel on stent): None
- Premature Deaths ([5]; 400 μg paclitaxel + parylene N): None
- Lumen Diameter ([6]; 5 μg paclitaxel on stent): 1.77 ± 0.34 mm
- Neointimal Thickness ([6]; 5 μg paclitaxel on stent): 0.31 ± 0.20 mm
- Outer Diameter ([6]; 5 μg paclitaxel on stent): 2.73 ± 0.28 mm
- Wall Thickness ([6]; 5 μg paclitaxel on stent): 0.48 ± 0.23 mm
- Lumen Diameter ([6]; 15 μg paclitaxel on stent): 1.87 ± 0.37 mm
- Neointimal Thickness ([6]; 15 μg paclitaxel on stent): 0.29 ± 0.19 mm
- Outer Diameter ([6]; 15 μg paclitaxel on stent): 2.41 ± 0.90 mm
- Wall Thickness ([6]; 15 μg paclitaxel on stent): 0.46 ± 0.22 mm
- Lumen Diameter ([6]; 35 μg paclitaxel on stent): 2.12 ± 0.52 mm
- Neointimal Thickness ([6]; 35 μg paclitaxel on stent): 0.19 ± 0.16 mm
- Outer Diameter ([6]; 35 μg paclitaxel on stent): 2.78 ± 0.32 mm
- Wall Thickness ([6]; 35 μg paclitaxel on stent): 0.33 ± 0.17 mm
- Lumen Diameter ([6]; 85 μg paclitaxel on stent): 2.40 ± 0.31 mm
- Neointimal Thickness ([6]; 85 μg paclitaxel on stent): 0.15 ± 0.08 mm
- Outer Diameter ([6]; 85 μg paclitaxel on stent): 2.96 ± 0.31 mm
- Wall Thickness ([6]; 85 μg paclitaxel on stent): 0.28 ± 0.10 mm
- Lumen Diameter ([6]; 400 μg paclitaxel + parylene N): 2.58 ± 0.19 mm
- Neointimal Thickness ([6]; 400 μg paclitaxel + parylene N): 0.12 ± 0.06 mm
- Outer Diameter ([6]; 400 μg paclitaxel + parylene N): 3.06 ± 0.17 mm
- Wall Thickness ([6]; 400 μg paclitaxel + parylene N): 0.24 ± 0.07 mm

Compound: c7E3 Fab: chimeric monoclonal antibody acting on platelet GP IIb/IIIa integrin to inhibit aggregation
- loaded antibody remaining on the stent [7]: approximately half
